The text below walks through data of patent publication US9567336B2, “Conjugated TLR7 and/or TLR8 and TLR2 agonists” (CAYLA, priority 2012, dated 2017).

SMILES strings stand for the structures.

One assay deals with T1, human TLR7 (Homo sapiens, UniProt Q9NYK1).
T1 construct: host or cells: HEK293 (HEK-Blue hTLR7)
T1 sequence (Q9NYK1 27-1049): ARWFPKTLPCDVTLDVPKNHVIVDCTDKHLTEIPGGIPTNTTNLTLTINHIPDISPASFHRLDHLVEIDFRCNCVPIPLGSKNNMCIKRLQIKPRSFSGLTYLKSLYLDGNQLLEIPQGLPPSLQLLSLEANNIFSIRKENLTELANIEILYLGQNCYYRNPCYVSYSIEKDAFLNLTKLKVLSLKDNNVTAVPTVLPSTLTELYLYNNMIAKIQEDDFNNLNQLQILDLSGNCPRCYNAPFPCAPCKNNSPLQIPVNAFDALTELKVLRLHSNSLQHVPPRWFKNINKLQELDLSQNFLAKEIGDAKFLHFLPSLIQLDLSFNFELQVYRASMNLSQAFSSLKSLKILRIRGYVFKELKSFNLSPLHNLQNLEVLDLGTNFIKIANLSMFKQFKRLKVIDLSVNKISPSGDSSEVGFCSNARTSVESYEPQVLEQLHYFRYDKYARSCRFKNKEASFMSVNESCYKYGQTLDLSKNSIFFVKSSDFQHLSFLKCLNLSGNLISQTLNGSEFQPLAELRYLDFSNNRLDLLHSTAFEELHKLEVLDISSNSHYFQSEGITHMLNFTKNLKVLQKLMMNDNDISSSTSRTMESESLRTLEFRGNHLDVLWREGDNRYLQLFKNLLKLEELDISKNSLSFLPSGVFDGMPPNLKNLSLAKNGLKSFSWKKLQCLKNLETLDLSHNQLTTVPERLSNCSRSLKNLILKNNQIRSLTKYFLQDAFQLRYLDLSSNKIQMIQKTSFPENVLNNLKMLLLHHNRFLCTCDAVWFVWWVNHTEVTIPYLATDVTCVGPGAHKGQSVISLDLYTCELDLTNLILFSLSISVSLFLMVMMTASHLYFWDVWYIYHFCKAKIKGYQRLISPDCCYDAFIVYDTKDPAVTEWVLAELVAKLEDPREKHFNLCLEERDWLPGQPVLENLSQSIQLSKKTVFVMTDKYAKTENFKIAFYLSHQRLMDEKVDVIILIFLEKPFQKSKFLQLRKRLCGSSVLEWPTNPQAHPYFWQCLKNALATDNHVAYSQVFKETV
Description: HEK-Blue hTLR7 NF-κB/AP-1 SEAP reporter cell assay. The format is cell-based. Conditions: HEK-Blue hTLR7 reporter cells, 10 μg/mL to 10 pg/ml, 24 hours, OD at 655 nm; FIGS. 1A, 1B. On the procedure:
(§1) Some conjugated compounds of the invention were tested for their ability to activate TLR7 and TLR2 receptor signaling. Cell-based assays were carried out using TLR7 and TLR2 reporter cell lines (InvivoGen). The reporter cell lines are engineered HEK293 cells, a human embryonic kidney cell line (ATCC, CRL-1573) that stably express either murine TLR7 (HEK-Blue™ mTLR7) or human TLR7 (HEK-Blue™ hTLR7) or murine TLR2 (HEK-Blue™ mTLR2) or human TLR2 (HEK-Blue™ hTLR2) with an NF-κB-inducible secreted embryonic alkaline phosphatase (SEAP) as the reporter gene. The SEAP reporter gene is placed under the control of the NF-κB and AP-inducible promoter. Stimulation with the corresponding TLR ligand activates NF-κB and AP-1, which induces the production of SEAP. Detection of SEAP is measured following culturing cells in HEK-Blue™ Detection media (InvivoGen). HEK-Blue™ Detection contains a SEAP substrate, which upon hydrolysis by SEAP produces a colorimetric change allowing for detection of SEAP as the protein is secreted. […] These assays were carried out using RAW-Blue™ Cells (InvivoGen), derived from RAW 264.7 mouse leukemic monocytic macrophage cell line (ATCC, CRL 2278) stably overexpressing a NF-κB/AP-1 inducible SEAP reporter constructs.
(§2) To perform the assay, cells were seeded on 96 well microliter plates at 50,000 or 100,000 cells per well for HEK-Blue™ Cells and RAW-Blue™ Cells respectively, and cultured at 37° C. in the presence of the conjugated compounds. The conjugated compounds were prepared as follows: First, stock solutions of the small molecule conjugated compounds of the invention were prepared in ethanol or water to a concentration of 10 mg/ml. A working dilution of the conjugated TLR7-TLR2 small molecules was made up in water and added to cells at a final range of concentrations from 10 μg/mL to 10 pg/ml. The working dilutions of the conjugated TLR7-TLR2 small molecules as the stated concentrations were directly added to the reporter cell lines and incubated at 37° C. for 24 hours. After 24 hours of incubation, the effect on reporter gene activity was determined by reading the OD at 655 nm using iMark™ Microplate Reader (BIO-RAD).
(§3) The conjugated compounds were tested alone for their ability to specifically activate TLR7 and TLR2, alongside the known TLR7 activators R848 or CL264 (InvivoGen) and the TLR2 agonists Pam2CSK4 or Pam3CSK4 (InvivoGen). The specificity of the TLR activity was determined by use of reporter cell lines to the other TLRs (data not shown). […] The molecules show a tendency to activate mouse TLR7 with greater sensitivity than human TLR7. […] Furthermore, dose-dependent responses of the conjugated compounds indicate significant TLR activities of TLR7 and TLR2 compared to the corresponding controls.

In the next assay the target is T2, murine TLR7 (Mus musculus, UniProt P58681).
T2 construct: host or cells: HEK293 (HEK-Blue mTLR7)
T2 sequence (P58681 27-1050): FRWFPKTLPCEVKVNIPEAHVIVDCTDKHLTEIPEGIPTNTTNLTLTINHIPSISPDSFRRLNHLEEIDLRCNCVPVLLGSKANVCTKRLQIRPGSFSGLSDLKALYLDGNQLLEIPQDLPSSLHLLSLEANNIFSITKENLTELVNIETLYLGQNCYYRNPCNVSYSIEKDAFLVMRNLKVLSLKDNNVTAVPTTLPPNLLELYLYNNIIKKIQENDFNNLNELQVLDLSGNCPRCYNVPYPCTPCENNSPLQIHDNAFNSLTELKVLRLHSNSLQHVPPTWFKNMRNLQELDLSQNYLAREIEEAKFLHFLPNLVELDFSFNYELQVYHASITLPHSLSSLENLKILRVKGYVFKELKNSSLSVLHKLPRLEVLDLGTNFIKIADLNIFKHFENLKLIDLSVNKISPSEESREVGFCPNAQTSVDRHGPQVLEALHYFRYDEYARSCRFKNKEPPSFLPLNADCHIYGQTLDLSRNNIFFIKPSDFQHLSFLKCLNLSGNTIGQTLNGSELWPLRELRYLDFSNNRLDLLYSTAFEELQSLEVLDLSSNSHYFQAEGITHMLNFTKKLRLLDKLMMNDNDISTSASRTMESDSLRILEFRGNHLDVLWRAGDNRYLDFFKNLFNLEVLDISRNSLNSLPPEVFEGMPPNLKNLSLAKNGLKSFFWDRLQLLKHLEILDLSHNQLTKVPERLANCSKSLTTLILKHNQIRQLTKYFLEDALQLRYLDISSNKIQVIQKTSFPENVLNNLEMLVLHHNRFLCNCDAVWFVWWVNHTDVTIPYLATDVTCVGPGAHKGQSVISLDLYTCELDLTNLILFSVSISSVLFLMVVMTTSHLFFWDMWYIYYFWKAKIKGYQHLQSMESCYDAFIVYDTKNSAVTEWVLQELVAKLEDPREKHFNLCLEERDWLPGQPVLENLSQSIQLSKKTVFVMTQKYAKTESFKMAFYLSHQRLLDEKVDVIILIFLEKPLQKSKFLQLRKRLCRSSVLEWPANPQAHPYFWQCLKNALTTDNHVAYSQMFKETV
Description: HEK-Blue mTLR7 NF-κB/AP-1 SEAP reporter cell assay. Format: cell-based. Conditions: HEK-Blue mTLR7 reporter cells, 10 μg/mL to 10 pg/ml, 24 hours, OD at 655 nm; FIGS. 2A, 2B. On the procedure: as §1, §2, §3

The next assay concerns the target T3, human TLR2 (Homo sapiens, UniProt O60603).
T3 construct: host or cells: HEK293 (HEK-Blue hTLR2)
Description: HEK-Blue hTLR2 NF-κB/AP-1 SEAP reporter cell assay. The format is cell-based. Conditions: HEK-Blue hTLR2 reporter cells, 10 μg/mL to 10 pg/ml, 24 hours, OD at 655 nm; FIGS. 3A, 3B. On the procedure:
as §1, §2, §3

In assay [1] the test system is NF-κB in RAW-Blue™ Cells (RAW 264.7, endogenous TLR7 and TLR2). Description: RAW-Blue Cells NF-κB/AP-1 inducible SEAP reporter assay. To be noted: murine monocytic macrophage cell line RAW 264.7, 24 hours, OD at 655 nm; FIGS. 5A, 5B. The format is cell-based, mouse. The protocol:
as §1, §2, §3
In general terms: A reporter such as luciferase makes a cellular process visible.

In a further assay the target is T4, murine TLR2 (Mus musculus, UniProt Q9QUN7).
T4 construct: host or cells: HEK293 (HEK-Blue mTLR2)
T4 sequence (Q9QUN7 25-784): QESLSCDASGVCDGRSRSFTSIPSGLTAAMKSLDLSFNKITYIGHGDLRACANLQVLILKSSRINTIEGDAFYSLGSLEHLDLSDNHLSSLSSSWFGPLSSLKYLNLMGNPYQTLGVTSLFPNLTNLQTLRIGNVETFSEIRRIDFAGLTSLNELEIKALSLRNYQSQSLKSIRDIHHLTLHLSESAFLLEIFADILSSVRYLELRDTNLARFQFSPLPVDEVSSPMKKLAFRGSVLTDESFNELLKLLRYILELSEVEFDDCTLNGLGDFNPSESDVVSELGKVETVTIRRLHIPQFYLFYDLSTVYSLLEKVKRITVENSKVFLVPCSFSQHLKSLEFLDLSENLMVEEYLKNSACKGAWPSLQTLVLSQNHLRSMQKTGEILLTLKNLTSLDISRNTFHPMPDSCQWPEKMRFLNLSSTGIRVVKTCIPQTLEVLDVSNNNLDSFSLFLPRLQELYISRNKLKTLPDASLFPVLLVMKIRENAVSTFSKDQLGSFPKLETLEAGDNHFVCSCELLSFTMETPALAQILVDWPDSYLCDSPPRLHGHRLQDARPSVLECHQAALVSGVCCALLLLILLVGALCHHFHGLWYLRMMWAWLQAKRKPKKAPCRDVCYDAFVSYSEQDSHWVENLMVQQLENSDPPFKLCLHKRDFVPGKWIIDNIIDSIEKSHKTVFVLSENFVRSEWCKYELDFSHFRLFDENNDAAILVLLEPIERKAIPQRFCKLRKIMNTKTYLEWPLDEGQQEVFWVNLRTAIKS
Description: HEK-Blue mTLR2 NF-κB/AP-1 SEAP reporter cell assay. The format is cell-based. To be noted: HEK-Blue mTLR2 reporter cells, 10 μg/mL to 10 pg/ml, 24 hours, OD at 655 nm; FIG. 4. On the procedure: as §1, §2, §3

T3 sequence (O60603 21-784): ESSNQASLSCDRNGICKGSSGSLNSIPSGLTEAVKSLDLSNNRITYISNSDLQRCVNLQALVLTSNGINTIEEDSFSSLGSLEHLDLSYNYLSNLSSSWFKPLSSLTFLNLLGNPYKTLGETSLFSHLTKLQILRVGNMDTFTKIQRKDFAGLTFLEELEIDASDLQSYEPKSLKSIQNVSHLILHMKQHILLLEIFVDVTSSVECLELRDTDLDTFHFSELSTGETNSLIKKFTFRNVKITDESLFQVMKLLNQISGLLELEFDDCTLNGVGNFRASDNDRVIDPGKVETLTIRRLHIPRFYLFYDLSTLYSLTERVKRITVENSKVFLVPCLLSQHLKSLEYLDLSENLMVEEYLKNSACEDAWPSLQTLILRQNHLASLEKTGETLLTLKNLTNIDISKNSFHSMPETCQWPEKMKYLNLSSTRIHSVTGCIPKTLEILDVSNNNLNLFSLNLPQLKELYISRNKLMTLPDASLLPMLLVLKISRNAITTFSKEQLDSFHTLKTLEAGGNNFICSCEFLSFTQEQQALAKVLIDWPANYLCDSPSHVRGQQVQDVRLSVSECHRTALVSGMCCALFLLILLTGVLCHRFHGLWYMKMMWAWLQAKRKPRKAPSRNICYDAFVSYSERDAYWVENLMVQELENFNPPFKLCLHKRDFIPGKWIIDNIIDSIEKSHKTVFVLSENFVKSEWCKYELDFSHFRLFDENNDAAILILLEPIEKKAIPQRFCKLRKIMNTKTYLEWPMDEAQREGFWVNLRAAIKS

As for `CCCCCCCCCCCCCCCC(=O)N[C@@H](CSCC(COC(=O)CCCCCCCCCCCCCCC)OC(=O)CCCCCCCCCCCCCCC)C(=O)Nc1ccc(Cn2c(O)nc3c(N)nc(NCCCC)nc32)cc1` (mixture of isomers) [CL446, (R)-3-(3-(4-((6-amino-2-(butylamino)-8-hydroxy-9H-purin-9-yl)methyl)phenylamino)-3-oxo-2-palmitamidopropylthio)propane-1,2-diyl dipalmitate], the “ability to activate TLR7 receptors (human TLR7)” value (“ability … (human TLR7)” for short) on human TLR7 was “activate TLR7 receptors”. Moreover, the “ability to activate TLR7 receptors (murine TLR7)” value (shortened to “ability … (murine TLR7)”) on murine TLR7 is reported as “activate TLR7 receptors”. Also, the “ability to activate TLR2 receptor (human TLR2)” value (“ability … (human TLR2)” for short) at human TLR2 is listed as “activate TLR2 receptor”. In addition, the “induction of NF-κB in RAW-Blue cells” value in assay [1] was “activate NF-κB”.
Regarding `CCCCCCCCCCCCCCCC(=O)OCC(CSC[C@H](N)C(=O)N[C@@H](CO)C(=O)Nc1ccc(Cn2c(O)nc3c(N)nc(NCCCC)nc32)cc1)OC(=O)CCCCCCCCCCCCCCC` (stereo partly drawn) [CL453, 3-((R)-2-amino-3-((S)-1-(4-((6-amino-2-(butylamino)-8-hydroxy-9H-purin-9-yl)methyl)phenylamino)-3-hydroxy-1-oxopropan-2-ylamino)-3-oxopropylthio)propane-1,2-diyl dipalmitate], on human TLR7, the “ability … (human TLR7)” value is given as “activate TLR7 receptors”. Moreover, the “ability … (murine TLR7)” value at murine TLR7 is given as “activate TLR7 receptors”. Further, on human TLR2, the “ability … (human TLR2)” value is listed as “activate TLR2 receptor”. Also, the “induction of NF-κB in RAW-Blue cells” value in assay [1] is recorded as “activate NF-κB”.
Regarding `CCCCCCCCCCCCCC(=O)OCCSC[C@H](N)C(=O)Nc1ccc(Cn2c(O)nc3c(N)nc(NCCCC)nc32)cc1` [CL555, (R)-2-(2-amino-3-(4-((6-amino-2-(butylamino)-8-hydroxy-9H-purin-9-yl)methyl)phenylamino)-3-oxopropylthio)ethyl tetradecanoate], the “ability … (human TLR7)” value on human TLR7 is reported as “activate TLR7 receptors”. For the same molecule, on murine TLR7, the “ability … (murine TLR7)” value was “activate TLR7 receptors”. In addition, the “ability … (human TLR2)” value at human TLR2 is “activate TLR2 receptor”. At murine TLR2, the “ability to activate TLR2 receptor (murine TLR2)” value (“ability … (murine TLR2)” below) is “activate TLR2 receptor”. Also, the “induction of NF-κB in RAW-Blue cells” value in assay [1] is “activate NF-κB”.
For `CCCCCCCCCCCCCCCC(=O)OCCSC[C@H](N)C(=O)Nc1ccc(Cn2c(O)nc3c(N)nc(NCCCC)nc32)cc1` [CL556, (R)-2-(2-amino-3-(4-((6-amino-2-(butylamino)-8-hydroxy-9H-purin-9-yl)methyl)phenylamino)-3-oxopropylthio)ethyl palmitate], at human TLR7, the “ability … (human TLR7)” value is reported as “activate TLR7 receptors”. At murine TLR7, the “ability … (murine TLR7)” value is reported as “activate TLR7 receptors”. Besides, at human TLR2, the “ability … (human TLR2)” value is listed as “activate TLR2 receptor”. Besides, the “ability … (murine TLR2)” value on murine TLR2 is reported as “activate TLR2 receptor”. The “induction of NF-κB in RAW-Blue cells” value in assay [1] is recorded as “activate NF-κB”.
For the molecule `CCCCCCCCCCCCCCCCCC(=O)OCCSC[C@H](N)C(=O)Nc1ccc(Cn2c(O)nc3c(N)nc(NCCCC)nc32)cc1` [CL557, (R)-2-(2-amino-3-(4-((6-amino-2-(butylamino)-8-hydroxy-9H-purin-9-yl)methyl)phenylamino)-3-oxopropylthio)ethyl stearate], at human TLR7, the “ability … (human TLR7)” value is recorded as “activate TLR7 receptors”. Besides, at murine TLR7, the “ability … (murine TLR7)” value is “activate TLR7 receptors”. Moreover, at human TLR2, the “ability … (human TLR2)” value is on record as “activate TLR2 receptor”. The “ability … (murine TLR2)” value on murine TLR2 is reported as “activate TLR2 receptor”. Further, the “induction of NF-κB in RAW-Blue cells” value in assay [1] is listed as “activate NF-κB”.
For the molecule `CCCCCCCCCCCCCC(=O)OCCSC[C@H](N)C(=O)N[C@@H](CCC(=O)Nc1ccc(Cn2c(O)nc3c(N)nc(NCCCC)nc32)cc1)C(=O)OC` [CL572, 2-((R)-2-amino-3-((S)-5-(4-((6-amino-2-(butylamino)-8-hydroxy-9H-purin-9-yl)methyl)phenylamino)-1-methoxy-1,5-dioxopentan-2-ylamino)-3-oxopropylthio)ethyl tetradecanoate], the “ability … (human TLR7)” value at human TLR7 is on record as “activate TLR7 receptors”. Also, at murine TLR7, the “ability … (murine TLR7)” value was “activate TLR7 receptors”. For the same molecule, the “ability … (human TLR2)” value at human TLR2 was “activate TLR2 receptor”. For the same molecule, the “ability … (murine TLR2)” value at murine TLR2 is “activate TLR2 receptor”.
